Laboratory results reported in publication PMC9694544, “Conteltinib (CT-707) in patients with advanced ALK-positive non-small cell lung cancer: a multicenter, open-label, first-in-human phase 1 study” (BMC Medicine, 2022).

System: patients with ALK-positive NSCLC
Assay: Phase 1 safety assessment (TRAEs by CTCAE 4.03, DLT, MTD, RP2D)
Type: in vivo, human
Protocol: In the dose-escalation phase, the dose was escalated sequentially from a low to a high level with a 3 + 3 dose-escalation scheme based on the modified Fibonacci method. The starting dose for conteltinib was 50 mg orally quaque die (QD). Dose escalation proceeded to the next six cohorts of 100 mg, 200 mg, 300 mg, 450 mg, 600 mg, and 800 mg QD. For each dose, there was a PK lead-in phase where a single dose was given 7 days before cycle 1 day 1. Then, each dose was taken continuously in a 28-day cycle. The first cycle was for dose-limiting toxicity (DLT) investigation. When one of three patients experienced a DLT in a dose cohort, three additional patients were enrolled in the same dose cohort to assess the dose level in a total of six patients. All patients received conteltinib until disease progression, unacceptable toxicity, or withdrawal of consent. Patients received follow-up safety assessments for 30 days (±7 days) after the last conteltinib dose.
In the dose-expansion phase, each dose was taken continuously in a 28-day cycle. At the end of each cycle, a safety evaluation was conducted. If patients met the criteria to enter the next cycle, treatment with conteltinib was continued for subsequent cycles. All patients received conteltinib until disease progression, unacceptable toxicity, or withdrawal of consent. Patients received follow-up safety assessments for 30 days (±7 days) after the last dose of conteltinib.
The safety of conteltinib was assessed in safety set (SS) which was based on the National Cancer Institute Common Terminology Criteria for Adverse Events (CTCAE) version 4.03, laboratory tests, vital signs, ECG, and clinical observations. […] Adverse events (AEs) were judged to be treatment-related or not by investigators.
DLTs were AEs occurring in the first cycle of treatment (28 days) that were attributed to conteltinib, and the criteria were grade 4 neutropenia lasting ≥ 7 days, febrile neutropenia, grade 3 thrombocytopenia, grade 3 non-hematologic toxicity, and any conteltinib-related toxicity resulting in treatment delay > 2 weeks or discontinuation of conteltinib treatment at the assigned dose level. Besides, grade 3 nausea, vomiting, or diarrhea for ≥ 3 days or grade 4 nausea, vomiting, or diarrhea of any duration was considered as a DLT. The MTD was defined as the dose of conteltinib that would be closest to but not higher than a 33% probability of a DLT.

With COc1cc(N2CCC(N3CCN(C)CC3)CC2)ccc1Nc1nc2c(c(Nc3ccccc3S(=O)(=O)NC(C)C)n1)CCN2 [Conteltinib] the “TRAE Abdominal pain” value (200 mg QD (n=3), Grade ≥ 3) was 0 (0.0) n (%), the “TRAE Abdominal pain upper” value (200 mg QD (n=3), Grade ≥ 3) was 0 (0.0) n (%) and the “TRAE Appetite decreased” value (200 mg QD (n=3), Grade ≥ 3) was 0 (0.0) n (%). The “TRAE Conjugated bilirubin elevated” value (200 mg QD (n=3), Grade ≥ 3) was 0 (0.0) n (%), the “TRAE Diarrhea” value (200 mg QD (n=3), Grade ≥ 3) was 0 (0.0) n (%) and the “TRAE Hypercholesterolemia” value (200 mg QD (n=3), Grade ≥ 3) was 0 (0.0) n (%). For the same molecule, the “TRAE Hyperglycemia” value (200 mg QD (n=3), Grade ≥ 3) was 0 (0.0) n (%), the “TRAE Hypertriglyceridemia” value (200 mg QD (n=3), Grade ≥ 3) was 0 (0.0) n (%) and the “TRAE Hyperuricemia” value (200 mg QD (n=3), Grade ≥ 3) was 0 (0.0) n (%). For the same molecule, the “TRAE Hypoalbuminemia” value (200 mg QD (n=3), Grade ≥ 3) was 0 (0.0) n (%), the “TRAE Nausea” value (200 mg QD (n=3), Grade ≥ 3) was 0 (0.0) n (%) and the “TRAE Proteinuria” value (200 mg QD (n=3), Grade ≥ 3) was 0 (0.0) n (%). For the same molecule, the “TRAE Serum creatinine elevated” value (200 mg QD (n=3), Grade ≥ 3) was 0 (0.0) n (%), the “TRAE Vomiting” value (200 mg QD (n=3), Grade ≥ 3) was 0 (0.0) n (%) and the “TRAE Weight loss” value (200 mg QD (n=3), Grade ≥ 3) was 0 (0.0) n (%). The “TRAE γ-GGT elevated” value (200 mg QD (n=3), Grade ≥ 3) was 0 (0.0) n (%), the “Patients with any TRAE” value (300 mg BID (n=12), Grade 1–2) was 10 (83.3) n (%) and the “TRAE ALT elevated” value (300 mg BID (n=12), Grade 1–2) was 3 (25.0) n (%). The “TRAE AST elevated” value (300 mg BID (n=12), Grade 1–2) was 3 (25.0) n (%), the “TRAE Abdominal pain” value (300 mg BID (n=12), Grade 1–2) was 2 (16.7) n (%) and the “TRAE Abdominal pain upper” value (300 mg BID (n=12), Grade 1–2) was 3 (25.0) n (%). The “TRAE Appetite decreased” value (300 mg BID (n=12), Grade 1–2) was 2 (16.7) n (%), the “TRAE Conjugated bilirubin elevated” value (300 mg BID (n=12), Grade 1–2) was 1 (8.3) n (%) and the “TRAE Diarrhea” value (300 mg BID (n=12), Grade 1–2) was 8 (66.7) n (%). The “TRAE Hypercholesterolemia” value (300 mg BID (n=12), Grade 1–2) was 0 (0.0) n (%), the “TRAE Hyperglycemia” value (300 mg BID (n=12), Grade 1–2) was 0 (0.0) n (%) and the “TRAE Hypertriglyceridemia” value (300 mg BID (n=12), Grade 1–2) was 1 (8.3) n (%). For the same molecule, the “TRAE Hyperuricemia” value (300 mg BID (n=12), Grade 1–2) was 2 (16.7) n (%), the “TRAE Hypoalbuminemia” value (300 mg BID (n=12), Grade 1–2) was 4 (33.3) n (%) and the “TRAE Nausea” value (300 mg BID (n=12), Grade 1–2) was 4 (33.3) n (%). For the same molecule, the “TRAE Proteinuria” value (300 mg BID (n=12), Grade 1–2) was 3 (25.0) n (%), the “TRAE Serum creatinine elevated” value (300 mg BID (n=12), Grade 1–2) was 5 (41.7) n (%) and the “TRAE Vomiting” value (300 mg BID (n=12), Grade 1–2) was 2 (16.7) n (%). The “TRAE Weight loss” value (300 mg BID (n=12), Grade 1–2) was 2 (16.7) n (%), the “TRAE γ-GGT elevated” value (300 mg BID (n=12), Grade 1–2) was 3 (25.0) n (%) and the “Patients with any TRAE” value (300 mg BID (n=12), Grade ≥ 3) was 1 (8.3) n (%). The “TRAE ALT elevated” value (300 mg BID (n=12), Grade ≥ 3) was 0 (0.0) n (%), the “TRAE AST elevated” value (300 mg BID (n=12), Grade ≥ 3) was 0 (0.0) n (%) and the “TRAE Abdominal pain” value (300 mg BID (n=12), Grade ≥ 3) was 0 (0.0) n (%). The “TRAE Abdominal pain upper” value (300 mg BID (n=12), Grade ≥ 3) was 0 (0.0) n (%), the “TRAE Appetite decreased” value (300 mg BID (n=12), Grade ≥ 3) was 0 (0.0) n (%) and the “TRAE Conjugated bilirubin elevated” value (300 mg BID (n=12), Grade ≥ 3) was 1 (8.3) n (%). For the same molecule, the “TRAE Diarrhea” value (300 mg BID (n=12), Grade ≥ 3) was 0 (0.0) n (%), the “TRAE Hypercholesterolemia” value (300 mg BID (n=12), Grade ≥ 3) was 0 (0.0) n (%) and the “TRAE Hyperglycemia” value (300 mg BID (n=12), Grade ≥ 3) was 0 (0.0) n (%). The “TRAE Hypertriglyceridemia” value (300 mg BID (n=12), Grade ≥ 3) was 0 (0.0) n (%), the “TRAE Hyperuricemia” value (300 mg BID (n=12), Grade ≥ 3) was 0 (0.0) n (%) and the “TRAE Hypoalbuminemia” value (300 mg BID (n=12), Grade ≥ 3) was 0 (0.0) n (%). For the same molecule, the “TRAE Nausea” value (300 mg BID (n=12), Grade ≥ 3) was 0 (0.0) n (%), the “TRAE Proteinuria” value (300 mg BID (n=12), Grade ≥ 3) was 0 (0.0) n (%) and the “TRAE Serum creatinine elevated” value (300 mg BID (n=12), Grade ≥ 3) was 0 (0.0) n (%). For the same molecule, the “TRAE Vomiting” value (300 mg BID (n=12), Grade ≥ 3) was 0 (0.0) n (%), the “TRAE Weight loss” value (300 mg BID (n=12), Grade ≥ 3) was 0 (0.0) n (%) and the “TRAE γ-GGT elevated” value (300 mg BID (n=12), Grade ≥ 3) was 1 (8.3) n (%). For the same molecule, the “Patients with any TRAE” value (300 mg QD (n=3), Grade 1–2) was 3 (100) n (%), the “TRAE AST elevated” value (300 mg QD (n=3), Grade 1–2) was 1 (33.3) n (%) and the “TRAE Abdominal pain” value (300 mg QD (n=3), Grade 1–2) was 0 (0.0) n (%). The “TRAE Abdominal pain upper” value (300 mg QD (n=3), Grade 1–2) was 0 (0.0) n (%), the “TRAE Appetite decreased” value (300 mg QD (n=3), Grade 1–2) was 0 (0.0) n (%) and the “TRAE Conjugated bilirubin elevated” value (300 mg QD (n=3), Grade 1–2) was 0 (0.0) n (%). The “TRAE Diarrhea” value (300 mg QD (n=3), Grade 1–2) was 3 (100) n (%), the “TRAE Hypercholesterolemia” value (300 mg QD (n=3), Grade 1–2) was 1 (33.3) n (%) and the “TRAE Hyperglycemia” value (300 mg QD (n=3), Grade 1–2) was 1 (33.3) n (%). For the same molecule, the “TRAE Hypertriglyceridemia” value (300 mg QD (n=3), Grade 1–2) was 1 (33.3) n (%), the “TRAE Hyperuricemia” value (300 mg QD (n=3), Grade 1–2) was 0 (0.0) n (%) and the “TRAE Hypoalbuminemia” value (300 mg QD (n=3), Grade 1–2) was 1 (33.3) n (%). For the same molecule, the “TRAE Nausea” value (300 mg QD (n=3), Grade 1–2) was 1 (33.3) n (%), the “TRAE Proteinuria” value (300 mg QD (n=3), Grade 1–2) was 0 (0.0) n (%) and the “TRAE Serum creatinine elevated” value (300 mg QD (n=3), Grade 1–2) was 1 (33.3) n (%). For the same molecule, the “TRAE Vomiting” value (300 mg QD (n=3), Grade 1–2) was 1 (33.3) n (%), the “TRAE Weight loss” value (300 mg QD (n=3), Grade 1–2) was 3 (100) n (%) and the “TRAE γ-GGT elevated” value (300 mg QD (n=3), Grade 1–2) was 0 (0.0) n (%). For the same molecule, the “Patients with any TRAE” value (300 mg QD (n=3), Grade ≥ 3) was 0 (0.0) n (%), the “TRAE ALT elevated” value (300 mg QD (n=3), Grade ≥ 3) was 0 (0.0) n (%) and the “TRAE AST elevated” value (300 mg QD (n=3), Grade ≥ 3) was 0 (0.0) n (%). The “TRAE Abdominal pain” value (300 mg QD (n=3), Grade ≥ 3) was 0 (0.0) n (%), the “TRAE Abdominal pain upper” value (300 mg QD (n=3), Grade ≥ 3) was 0 (0.0) n (%) and the “TRAE Appetite decreased” value (300 mg QD (n=3), Grade ≥ 3) was 0 (0.0) n (%). The “TRAE Conjugated bilirubin elevated” value (300 mg QD (n=3), Grade ≥ 3) was 0 (0.0) n (%), the “TRAE Diarrhea” value (300 mg QD (n=3), Grade ≥ 3) was 0 (0.0) n (%) and the “TRAE Hypercholesterolemia” value (300 mg QD (n=3), Grade ≥ 3) was 0 (0.0) n (%). For the same molecule, the “TRAE Hyperglycemia” value (300 mg QD (n=3), Grade ≥ 3) was 0 (0.0) n (%), the “TRAE Hypertriglyceridemia” value (300 mg QD (n=3), Grade ≥ 3) was 0 (0.0) n (%) and the “TRAE Hyperuricemia” value (300 mg QD (n=3), Grade ≥ 3) was 0 (0.0) n (%). The “TRAE Hypoalbuminemia” value (300 mg QD (n=3), Grade ≥ 3) was 0 (0.0) n (%), the “TRAE Nausea” value (300 mg QD (n=3), Grade ≥ 3) was 0 (0.0) n (%) and the “TRAE Proteinuria” value (300 mg QD (n=3), Grade ≥ 3) was 0 (0.0) n (%). For the same molecule, the “TRAE Serum creatinine elevated” value (300 mg QD (n=3), Grade ≥ 3) was 0 (0.0) n (%), the “TRAE Vomiting” value (300 mg QD (n=3), Grade ≥ 3) was 0 (0.0) n (%) and the “TRAE Weight loss” value (300 mg QD (n=3), Grade ≥ 3) was 0 (0.0) n (%). For the same molecule, the “TRAE γ-GGT elevated” value (300 mg QD (n=3), Grade ≥ 3) was 0 (0.0) n (%), the “Patients with any TRAE” value (450 mg QD (n=14), Grade 1–2) was 14 (100) n (%) and the “TRAE ALT elevated” value (450 mg QD (n=14), Grade 1–2) was 10 (71.4) n (%). For the same molecule, the “TRAE AST elevated” value (450 mg QD (n=14), Grade 1–2) was 9 (64.3) n (%), the “TRAE Abdominal pain” value (450 mg QD (n=14), Grade 1–2) was 5 (35.7) n (%) and the “TRAE Abdominal pain upper” value (450 mg QD (n=14), Grade 1–2) was 5 (35.7) n (%). For the same molecule, the “TRAE Appetite decreased” value (450 mg QD (n=14), Grade 1–2) was 2 (14.3) n (%), the “TRAE Conjugated bilirubin elevated” value (450 mg QD (n=14), Grade 1–2) was 2 (14.3) n (%) and the “TRAE Diarrhea” value (450 mg QD (n=14), Grade 1–2) was 13 (92.9) n (%).
